Assay results taken from ChEMBL document CHEMBL3232835, “Discovery of trifluoromethyl(pyrimidin-2-yl)azetidine-2-carboxamides as potent, orally bioavailable TGR5 (GPBAR1) agonists: structure-activity relationships, lead optimization, and chronic in vivo efficacy” (J Med Chem, 2014).

Key:
[1] = AUC in mouse plasma at 20 mg/kg up to 5 hrs; assay type: ADME, organism-based; parameters: time < 5 hr, dose 20 mg/kg
[2] = AUC in mouse at 20 mg/kg, po; assay type: ADME, organism-based; parameters: dose 20 mg/kg, route oral; details: plasma
[3] = Oral bioavailability in mouse at 20 mg/kg; assay type: ADME, organism-based; details: in vivo
[4] = Volume of distribution at steady state in mouse at 5 mg/kg, iv; assay type: ADME, organism-based; parameters: dose 5 mg/kg, route intravenous; details: in vivo, read-out: Vdss
[5] = AUC in mouse at 5 mg/kg, iv; assay type: ADME, organism-based; parameters: dose 5 mg/kg, route intravenous; details: plasma
[6] = Cmax in mouse at 20 mg/kg, po; assay type: ADME, organism-based; parameters: dose 20 mg/kg, route oral; details: in vivo
[7] = Cmax in mouse at 5 mg/kg, iv; assay type: ADME, organism-based; parameters: dose 5 mg/kg, route intravenous; details: in vivo
[8] = in vitro; details: human, Caco-2
[9] = in vitro; details: human, Caco-2; remark: listed apart in the source
[10] = Cmax in ob/ob mouse at 30 mg/kg, po qd measured on day 1; assay type: ADME, organism-based; parameters: dose 30 mg/kg, route oral; details: in vivo
[11] = Lipophilicity, log D of the compound at pH 6.8; assay type: physicochemical; details: buffer
[12] = AUC in ob/ob mouse at 30 mg/kg, po qd measured on day 1; assay type: ADME, organism-based; parameters: dose 30 mg/kg, route oral; details: plasma
[13] = AUC in ob/ob mouse at 30 mg/kg, po qd measured on day 37; assay type: ADME, organism-based; parameters: dose 30 mg/kg, route oral; details: plasma
[14] = Cmax in ob/ob mouse at 30 mg/kg, po qd measured on day 37; assay type: ADME, organism-based; parameters: dose 30 mg/kg, route oral; details: in vivo

In the case of `N#Cc1ccc(CCNC(=O)[C@@H]2CCN2c2cc(N3CCC(Oc4ccc(CC(=O)O)cc4)CC3)nc(C(F)(F)F)n2)cc1`, the AUC at 5 h [1] is reported as 14.2 µM·h.

With `CN1CCN(c2cc(N3CCC[C@@H](C(=O)NCCc4ccc(C#N)cc4)C3)nc(C(F)(F)F)n2)CC1` the AUC [2] was 2.54 µM·h, the bioavailability [3] was 24% and the Vd [4] was 1.6 L/kg. It also gave an AUC [5] of 2.67 µM·h, a Cmax [6] of 1.07 µM and a Cmax [7] of 4.52 µM.

Compound `N#Cc1ccc(CCNC(=O)[C@@H]2CCN2c2cc(-c3ccc(-c4ccc(C(=O)O)cc4)cc3)nc(C(F)(F)F)n2)cc1` has an AUC at 5 h [1] of 13.9 µM·h.

Compound `CC1(C(=O)O)CCN(c2cc(N3CCC[C@@H](C(=O)NCCc4ccc(C#N)cc4)C3)nc(C(F)(F)F)n2)CC1` has a Papp B→A [8] of 13.5 ×10⁻⁶ cm/s, a Papp A→B [9] of 1.02 ×10⁻⁶ cm/s and an AUC at 5 h [1] of 1.05 µM·h.

In the case of `N#Cc1ccc(CCNC(=O)[C@@H]2CCCN(c3cc(N4CCC(C(=O)O)CC4)nc(C(F)(F)F)n3)C2)cc1`, the Papp B→A [8] is reported as 13 ×10⁻⁶ cm/s, the Papp A→B [9] is reported as 1.36 ×10⁻⁶ cm/s and the AUC at 5 h [1] is reported as 0.108 µM·h.

For `COc1cc(C2CCN(c3cc(N4CC[C@H]4C(=O)NCCc4ccc(C#N)cc4)nc(C(F)(F)F)n3)CC2)ccc1C(=O)O`, the Papp B→A [8] was 12.9 ×10⁻⁶ cm/s, the Papp A→B [9] was 2.7 ×10⁻⁶ cm/s and the AUC at 5 h [1] was 3.74 µM·h.

In the case of `N#Cc1ccc(CCNC(=O)[C@@H]2CCN2c2cc(-c3ccc([C@H]4CC[C@H](C(=O)O)CC4)cc3)nc(C(F)(F)F)n2)cc1`, the Cmax [10] is reported as 4.77 µM, the logD [11] is reported as 2.5 and the AUC [12] is reported as 45.5 µM·h. The AUC [13] was 37.5 µM·h, the AUC [2] was 53.8 µM·h and the Cmax [14] was 5.17 µM. The bioavailability [3] was 96.5%, the AUC at 5 h [1] was 11.4 µM·h and the Vd [4] was 1.31 L/kg. The AUC [5] was 13.9 µM·h, the Cmax [6] was 9.75 µM and the Cmax [7] was 12 µM.

Work on `N#Cc1ccc(CCNC(=O)[C@@H]2CCCN(c3cc(N4CCC(Oc5ccc(CC(=O)O)cc5)CC4)nc(C(F)(F)F)n3)C2)cc1` yielded a Papp B→A [8] of 6.4 ×10⁻⁶ cm/s, a Papp A→B [9] of 2.12 ×10⁻⁶ cm/s and an AUC at 5 h [1] of 5.02 µM·h.

Work on `N#Cc1ccc(CCNC(=O)[C@@H]2CCN2c2cc(N3CCC(Oc4ccc(C(=O)O)cc4)CC3)nc(C(F)(F)F)n2)cc1` yielded an AUC at 5 h [1] of 7.53 µM·h.
